Data reported in ChEMBL document CHEMBL1143562 (J Med Chem, 2005).
pIC50: −log10 of the molar value. Activity calls are given as the source filed them. The rule behind the calls is not given here.

Key:
[1] = Inhibition of [3H]gabapentin binding to pig brain membranes; design: species or system Sus scrofa, Membrane
[2] = system: Mus musculus; experiment: Percent protection of DBA/2 mice from audiogenically induced tonic seizures at a dose of 30 mg/kg of test compound; assay type: functional
[3] = system: Rattus norvegicus; experiment: The ability of 30 mg/kg oral dose of compound to restore punished drinking behavior in rats expressed as percent reference activity (PRA); NA-not active; assay type: functional, organism-based; design: dose 30 mg/kg
[4] = system: Rattus norvegicus; experiment: Inhibition of carrageenan-induced thermal hyperalgesia in rats 1 hr after administration of a 30 mg/kg dose of test compound; NA-not active; assay type: functional, organism-based; design: dose 30 mg/kg
[5] = Inhibition of [3H]leucine uptake into CHO cells by L-amino acid transporters; assay type: functional, cell-based; details: Cricetulus griseus
[6] = system: Rattus norvegicus; experiment: The ability of 30 mg/kg oral dose of compound to restore punished drinking behavior in rats expressed as percent reference activity (PRA); assay type: functional
[7] = system: Rattus norvegicus; experiment: Inhibition of carrageenan-induced thermal hyperalgesia in rats 1 hr after administration of a 30 mg/kg dose of test compound; assay type: functional

Compound	pIC50 [1]	Protection [2]	WLC PRA [3]	CITH [4]	pIC50 [5]	WLC PRA [6]	CITH [7]
CCC(CC)C(CN)CC(=O)O (stereo not drawn)	6.69	20%	inactive	inactive	3.84		
CC(C)[C@H](C)[C@H](CN)CC(=O)O		20%	inactive	inactive	4.55		
NCC1(CC(=O)O)CCCCC1 [GABAPENTIN]	7.15	100%			4.52	60	48
CCC(CC)CC(CN)CC(=O)O (stereo not drawn)	5.88	0%	inactive	inactive	3.85		
CC(C)C[C@H](CN)CC(=O)O [PREGABALIN]		100%			3.80	100	52
CC(C)[C@@H](C)[C@H](CN)CC(=O)O	7.68	100%			3.80	152	71
CC(C)C[C@@H](CCN)C(=O)O	5.69	0%	inactive		< 2.00		
CCCC[C@@H](CC(=O)O)[C@@H](C)N	5.99	0%	inactive	inactive	< 2.08		
CC(C)CC(C)(CN)CC(=O)O (stereo not drawn)		0%	inactive	inactive	4.05		
CC(C)C[C@H](CN)[C@H](C)C(=O)O	< 5.00	0%	inactive		3.93		
CCC[C@@H](CC(=O)O)[C@@H](C)N	5.89	0%	inactive	inactive	< 2.08		
CC(C)C[C@@H](CC(=O)O)[C@@H](C)N	6.32	0%	inactive	inactive	< 1.00		
CC(C)C[C@@H](CN)CC(=O)O		0%	inactive	inactive	3.45		
CC(C)C[C@@H](CC(=O)O)[C@H](C)N	7.41	0%	inactive	inactive	< 2.00		
CCC(CN)(CC(=O)O)CC(C)C (stereo not drawn)	5.07	20%	inactive		4.22		
